In one series the test system is Salmonella typhimurium (Stämme TA 98, TA 100, TA 1535, TA 1537, TA 1538). The experiment in a line: Ames mutagenicity test. As to conditions: strains TA 98, TA 100, TA 1535, TA 1537, TA 1538; ohne und in Gegenwart von S-9-Mix. In kind it is cell-based. An excerpt:
Die folgenden Beispiele sollen die Erfindung näher beschreiben. Der Mutagenitätstest wurde nach Ames mit Salmonella typhimurium (Stämme TA 98, TA 100, TA 1535, TA 1537, TA 1538) ohne und in Gegenwart von S-9-Mix durchgeführt (B.N. Ames et al., Mut. Res. Vol. 31, S. 347 - 364 (1975)).
Consider `CC(C)COc1cc(-c2ccc(N)c(OCC(C)C)c2)ccc1N` [Beispiel 2, 3,3'-Di-isobutoxybenzidin], for which the “Mutagenitätstest nach Ames” value was “negativ”.
Still for that read-out and setting: as for `CC(C)c1cc(-c2ccc(N)c(C(C)C)c2)ccc1N` [Beispiel 1, 3,3-Diisopropyl-benzidin-dichlorhydrat], the entry is “negativ”; as for `COCCOc1cc(-c2ccc(N)c(OCCOC)c2)ccc1N` [Beispiel 3, 3,3'-Di-(2-methoxyethoxy)-benzidin], “negativ”.

The same series, now with this note: strains TA 98, TA 100, TA 1535, TA 1537, TA 1538; ohne und in Gegenwart von S-9-Mix; table of further examples.
As for `CC(C)Cc1cc(-c2ccc(N)c(CC(C)C)c2)ccc1N` [Beispiel 6], the Ames-Test result is recorded as “negativ”.
On the same count and under the same terms, the result for `CCCCc1cc(-c2ccc(N)c(CCCC)c2)ccc1N` [Beispiel 5] reads “negativ”; that for `CCCOc1cc(-c2ccc(N)c(OCCC)c2)ccc1N` [Beispiel 8], “negativ”; that for `CCC(C)c1cc(-c2ccc(N)c(C(C)CC)c2)ccc1N` (stereo not shown) [Beispiel 7], “negativ”.
Still for that read-out and setting: the result for `CCCc1cc(-c2ccc(N)c(CCC)c2)ccc1N` [Beispiel 4] reads “negativ”; that for `CCC(C)Oc1cc(-c2ccc(N)c(OC(C)CC)c2)ccc1N` (stereo not shown) [Beispiel 10], “negativ”.
For `CC(C)Oc1cc(-c2ccc(N)c(OC(C)C)c2)ccc1N` [Beispiel 9], the Ames-Test result is “negativ”.
